According to US8227502B2, “Amides acting on the adenosine receptors” (Anamar AB, priority 2006, dated 2012):

These compounds were tested on antigen induced arthritis (assay: Antigen induced arthritis (AIA), knee joint swelling). Conditions: rat, per oral administration, FIG. 1.
Assay type: in vivo
From the text: Antigen Induced Arthritis (AIA) in the rat is a well reproducible monoarthritis model. An intraarticular injection of the antigen methylated bovine serum albumin (mBSA) in the knee joint in sensitised animals induces an inflammatory response. The formation of pannus tissue, which invades the synovium, spreads over the articular cartilage and grows into the bone, leading to tissue erosion and remodeling.
AIA responds well to compounds used for standard clinical treatment of human arthritis. Therefore this model is appropriate for the evaluation of the effects of new compounds on joint inflammation and cartilage/bone degradation. The test compounds can be administered locally or systemically. The features of the arthritis can be followed and evaluated by measuring knee joint swelling, by functional scoring and histological analysis. Since it is a monoarthritis model, the level of inflammatory serum markers may be difficult to detect. The AIA model also serves as a source for the production of synoviocytes for in vitro culturing, in order to gain further insight in the synovial matrix composition and for drug screening purposes.
In Antigen induced arthritis—for the effect on knee diameter of Compound 1:16 after per oral administration—see FIG. 1.

SMILES	swelling of the knee (knee diameter)
NCCC(=O)N(CCc1c[nH]c2ccccc12)C(C(=O)Nc1ccccc1)c1ccc(Br)cc1Br (centres unmarked) [Compound 1:16, 3-Amino-N-[(2,4-dibromo-phenyl)-phenylcarbamoyl-methyl]-N-[2-(1H-indol-3-yl)-ethyl]-propionamide]	reduced the swelling of the knee

These compounds were tested against T1, adenosine A2A receptor (Homo sapiens, UniProt P29274) (assay: Affinity for adenosine A2A receptor ([3H]CGS21680 binding, per Varani et al.)). Conditions: not given.
T1 construct: from tissue
T1 sequence (P29274 whole entry): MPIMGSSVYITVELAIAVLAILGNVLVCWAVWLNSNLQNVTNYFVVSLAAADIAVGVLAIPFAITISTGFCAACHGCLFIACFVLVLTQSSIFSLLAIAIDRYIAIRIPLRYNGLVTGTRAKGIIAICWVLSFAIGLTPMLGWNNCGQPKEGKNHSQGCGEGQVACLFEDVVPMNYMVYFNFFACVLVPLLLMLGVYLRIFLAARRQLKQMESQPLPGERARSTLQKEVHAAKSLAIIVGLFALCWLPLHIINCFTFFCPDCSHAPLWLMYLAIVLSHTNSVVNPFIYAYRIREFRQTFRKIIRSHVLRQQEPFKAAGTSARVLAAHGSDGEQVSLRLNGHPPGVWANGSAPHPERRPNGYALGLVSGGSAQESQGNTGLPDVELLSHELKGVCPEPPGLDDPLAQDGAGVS
From the text: The affinity and functionality towards the adenosine A2A receptor was essentially performed as described by Varani et al. (Varani, Pharmacological and biochemical characterization of purified A2A adenosine receptors in human platelet membranes by [^3H]CGS21680 binding, Br. J. Pharmacol. 117:1693-1701, 1996), Table 1.

Ki	IC50	SMILES
1000 nM		NCCC(=O)N(CCc1c[nH]c2ccccc12)C(C(=O)NC1CCCCC1)c1ccccc1Br (centres unmarked) [1:02, 3-Amino-N-[(2-bromo-phenyl)-cyclohexylcarbamoyl-methyl]-N-[2-(1H-indol-3-yl)-ethyl]-propionamide]
1600 nM	2840 nM	NCCC(=O)N(CCc1c[nH]c2ccccc12)C(C(=O)NC1CCCCC1)c1ccc(Br)cc1Br (centres unmarked) [1:04, 3-Amino-N-[cyclohexylcarbamoyl-(2,4-dibromo-phenyl)-methyl]-N-[2-(1H-indol-3-yl)-ethyl]-propionamide]
2870 nM	5110 nM	NCCC(=O)N(CCc1c[nH]c2ccccc12)C(C(=O)NCc1ccccc1)c1ccc(Br)cc1Br (centres unmarked) [1:09, 3-Amino-N-[benzylcarbamoyl-(2,4-dibromo-phenyl)-methyl]-N-[2-(1H-indol-3-yl)-ethyl]-propionamide]
60 nM		NCCC(=O)N(CCc1c[nH]c2ccccc12)C(C(=O)Nc1ccccc1)c1ccccc1Br (centres unmarked) [1:13, 3-Amino-N-[(2-bromo-phenyl)-phenylcarbamoyl-methyl]-N-[2-(1H-indol-3-yl)-ethyl]-propionamide]
136 nM	243 nM	NCCC(=O)N(CCc1c[nH]c2ccccc12)C(C(=O)Nc1ccccc1)c1ccc(Br)cc1 (centres unmarked) [1:15, 3-Amino-N-[(4-bromo-phenyl)-phenylcarbamoyl-methyl]-N-[2-(1H-indol-3-yl)-ethyl]-propionamide]
17.5 nM	31.1 nM	NCCC(=O)N(CCc1c[nH]c2ccccc12)C(C(=O)Nc1ccccc1)c1ccc(Br)cc1Br (centres unmarked) [Compound 1:16, 3-Amino-N-[(2,4-dibromo-phenyl)-phenylcarbamoyl-methyl]-N-[2-(1H-indol-3-yl)-ethyl]-propionamide]
